These results are taken from patent US20190225650A1, “PEPTIDOMIMETIC MACROCYCLES AND USE THEREOF IN REGULATING HIF1ALPHA” (AILERON THERAPEUTICS, INC., priority 2013, published 2019).

Bridge positions count the residues as written; N and C are the ends. Square brackets hold non-standard residues; d marks the D form. Peptide text beside a SMILES is read from it. R5 = C=CCCC[C@@](C)(N)C(=O)O; S5 = C=CCCC[C@](C)(N)C(=O)O; Nle = CCCC[C@H](N)C(=O)O

The subject of the experiment is HRE-bla ME-180 cells. Briefly: Reporter gene assay (HRE-bla ME-180 HIF reporter, GeneBLAzer). Format: cell-based, human. As to conditions: for EC50: 24 hour normoxia. The gist of the method:
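A FRET β-lactamase readout of HIF transcription was used. After compound treatment in 0.3% DMSO/media under normoxic conditions, 20 μl of 6× LiveBLAzer-FRET B/G (CCF4-AM) substrate was added. Plates sat 3 hr at room temperature in the dark and were read at 409 Ex/460Em and 409Ex/530Em on a Synergy 2. Inhibition was compared against DMSO vehicle controls, with chetomin as positive control.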
For orientation: In a reporter assay the amount or activity of a reporter protein is the signal.

The EC50 is the midpoint of the concentration-response curve. For the compound `CCCC[C@H](NC(=O)[C@H](CC(C)C)NC(=O)[C@@H](NC(=O)[C@H](CCC(=O)O)NC(=O)[C@H](CCC(=O)O)NC(=O)[C@H](CC(=O)O)NC(=O)[C@@H](NC(=O)[C@H](Cc1ccccc1)NC(C)=O)[C@@H](C)CC)C(C)C)C(=O)N[C@@]1(C)CCCC=CCCC[C@@](C)(C(=O)N[C@@H](CCCC)C(=O)N[C@@H](C)C(=O)N[C@@H](CC(C)C)C(=O)N[C@@H](CC(=O)O)C(=O)N[C@@H](CCCNC(=N)N)C(=O)N[C@H](C(N)=O)[C@@H](C)CC)NC(=O)[C@H](CO)NC(=O)[C@H](C(C)C)NC(=O)[C@H](CC(C)C)NC1=O` [SP-53] (Ac-FIDEEVL[Nle][S5]LVS[S5][Nle]ALDRI-NH2; staple 9-13), the “18 h Avg % max inhibition at top conc (HIF Rptr-24 hrs normoxia) (μM)” value (“18 h Avg % max inhibition at top conc” below) is listed as “+++ (≤25 but <50: +++)” and the EC50 fell in the range of 5 to 15 µM.

Regarding `CCCC[C@H](NC(=O)[C@H](CC(C)C)NC(=O)[C@@H](NC(=O)[C@H](CCC(=O)O)NC(=O)[C@H](CCC(=O)O)NC(=O)[C@H](CC(=O)O)NC(=O)[C@@H](NC(=O)[C@H](Cc1ccccc1)NC(C)=O)[C@@H](C)CC)C(C)C)C(=O)N[C@]1(C)CCCC=CCCC[C@](C)(C(=O)N[C@@H](CCCC)C(=O)N[C@@H](C)C(=O)N[C@@H](CC(C)C)C(=O)N[C@@H](CC(=O)O)C(=O)N[C@@H](CCCNC(=N)N)C(=O)N[C@H](C(N)=O)[C@@H](C)CC)NC(=O)[C@H]([C@@H](C)CC)NC(=O)[C@H](C(C)C)NC(=O)[C@H](CC(C)C)NC1=O` [SP-296] (Ac-FIDEEVL[Nle][R5]LVI[R5][Nle]ALDRI-NH2; staple 9-13), the “18 h Avg % max inhibition at top conc” value is recorded as “++++ (≥50: ++++)” and the 50% effective concentration (EC50) was no more than 5 µM.

For the compound `CC[C@H](C)[C@H](NC(=O)[C@H](Cc1ccccc1)NC(C)=O)C(=O)N[C@@H](CC(=O)O)C(=O)N[C@@H](CCC(=O)O)C(=O)N[C@@H](CCC(=O)O)C(=O)N[C@H](C(=O)N[C@@H](CC(C)C)C(=O)N[C@@H](C)C(=O)N[C@@]1(C)CCCC=CCCC[C@@](C)(C(=O)N[C@@H](C)C(=O)N[C@@H](C)C(=O)N[C@@H](CC(C)C)C(=O)N[C@@H](CC(=O)O)C(=O)N[C@@H](CCCNC(=N)N)C(N)=O)NC(=O)[C@H]([C@@H](C)CC)NC(=O)[C@H](C(C)C)NC(=O)[C@H](CC(C)C)NC1=O)C(C)C` [SP-28] (Ac-FIDEEVLA[S5]LVI[S5]AALDR-NH2; staple 9-13), the “18 h Avg % max inhibition at top conc” value is “++++ (≥50: ++++)” and the EC50 lay in the range of 15 to 30 µM.

Take `CCCC[C@H](NC(=O)[C@H](CC(C)C)NC(=O)[C@@H](NC(=O)[C@H](CCC(=O)O)NC(=O)[C@H](CCC(=O)O)NC(=O)[C@H](CC(=O)O)NC(=O)[C@@H](NC(=O)[C@H](CCC(=O)O)NC(C)=O)[C@@H](C)CC)C(C)C)C(=O)N[C@@]1(C)CCCC=CCCC[C@@](C)(C(=O)N[C@@H](CCCC)C(=O)N[C@@H](C)C(=O)N[C@@H](CC(C)C)C(=O)N[C@@H](CC(=O)O)C(=O)N[C@@H](CCCNC(=N)N)C(=O)N[C@H](C(N)=O)[C@@H](C)CC)NC(=O)[C@H]([C@@H](C)CC)NC(=O)[C@H](C(C)C)NC(=O)[C@H](CC(C)C)NC1=O` [SP-30] (Ac-EIDEEVL[Nle][S5]LVI[S5][Nle]ALDRI-NH2; staple 9-13): the “18 h Avg % max inhibition at top conc” value is recorded as “++ (≤10 but <25: ++)” and the concentration giving a half-maximal response (EC50) was greater than 30 µM.

On to `CCCC[C@H](NC(=O)[C@H](CC(C)C)NC(=O)[C@@H](NC(=O)[C@H](CCC(=O)O)NC(=O)[C@H](C)NC(=O)[C@H](CC(=O)O)NC(=O)[C@@H](NC(=O)[C@H](Cc1ccccc1)NC(C)=O)[C@@H](C)CC)C(C)C)C(=O)N[C@@]1(C)CCCC=CCCC[C@@](C)(C(=O)N[C@@H](CCCC)C(=O)N[C@@H](C)C(=O)N[C@@H](CC(C)C)C(=O)N[C@@H](CC(=O)O)C(=O)N[C@@H](CCCNC(=N)N)C(=O)N[C@H](C(N)=O)[C@@H](C)CC)NC(=O)[C@H]([C@@H](C)CC)NC(=O)[C@H](C(C)C)NC(=O)[C@H](CC(C)C)NC1=O` [SP-12] (Ac-FIDAEVL[Nle][S5]LVI[S5][Nle]ALDRI-NH2; staple 9-13), for which the “18 h Avg % max inhibition at top conc” value is “++++ (≥50: ++++)” and the half-maximal effective concentration (EC50) is 5 to 15 µM.

`CCCC[C@H](NC(=O)[C@H](CC(C)C)NC(=O)[C@@H](NC(=O)[C@H](CCC(=O)O)NC(=O)[C@H](CCC(=O)O)NC(=O)[C@H](CC(=O)O)NC(=O)[C@@H](NC(=O)[C@H](Cc1ccccc1)NC(C)=O)[C@@H](C)CC)C(C)C)C(=O)N[C@@]1(C)CCCC=CCCC[C@@](C)(C(=O)N[C@@H](CO)C(=O)N[C@@H](C)C(=O)N[C@@H](CC(C)C)C(=O)N[C@@H](CC(=O)O)C(=O)N[C@@H](CCCNC(=N)N)C(=O)N[C@H](C(N)=O)[C@@H](C)CC)NC(=O)[C@H]([C@@H](C)CC)NC(=O)[C@H](C(C)C)NC(=O)[C@H](CC(C)C)NC1=O` [SP-54] (Ac-FIDEEVL[Nle][S5]LVI[S5]SALDRI-NH2; staple 9-13): the “18 h Avg % max inhibition at top conc” value is listed as “++++ (≥50: ++++)” and the concentration for a half-maximal effect (EC50) was no more than 5 µM.

For the compound `CCCC[C@H](NC(=O)[C@H](CC(C)C)NC(=O)[C@@H](NC(=O)[C@H](CCC(=O)O)NC(=O)[C@H](CCC(=O)O)NC(=O)[C@H](CC(=O)O)NC(=O)[C@@H](NC(=O)[C@H](Cc1ccccc1)NC(C)=O)[C@@H](C)CC)C(C)C)C(=O)N[C@@]1(C)CCCC=CCCC[C@@](C)(C(=O)N[C@@H](CCCC)C(=O)N[C@@H](C)C(=O)N[C@@H](CC(C)C)C(=O)N[C@@H](CC(=O)O)C(=O)N[C@@H](CCCNC(=N)N)C(=O)N[C@H](C(N)=O)[C@@H](C)CC)NC(=O)[C@H]([C@@H](C)CC)NC(=O)[C@H](C(C)C)NC(=O)[C@H](CO)NC1=O` [SP-51] (Ac-FIDEEVL[Nle][S5]SVI[S5][Nle]ALDRI-NH2; staple 9-13), the “18 h Avg % max inhibition at top conc” value was “+++ (≤25 but <50: +++)” and the EC50 lay within 5 to 15 µM.

In the case of `CC[C@H](C)[C@H](NC(=O)[C@H](CCCNC(=N)N)NC(=O)[C@H](CC(=O)O)NC(=O)[C@H](CC(C)C)NC(=O)[C@H](C)NC(=O)[C@H](C)NC(=O)[C@]1(C)CCCC=CCCC[C@](C)(NC(=O)[C@H](C)NC(=O)[C@H](CC(C)C)NC(=O)[C@@H](NC(=O)[C@H](CCC(=O)O)NC(=O)[C@H](CCC(=O)O)NC(=O)[C@H](CC(=O)O)NC(=O)[C@@H](NC(=O)[C@H](Cc2ccccc2)NC(C)=O)[C@@H](C)CC)C(C)C)C(=O)N[C@@H](CC(C)C)C(=O)N[C@@H](C(C)C)C(=O)N[C@@H]([C@@H](C)CC)C(=O)N1)C(N)=O` [SP-26] (Ac-FIDEEVLA[S5]LVI[S5]AALDRI-NH2; staple 9-13), the “18 h Avg % max inhibition at top conc” value was “++++ (≥50: ++++)” and the concentration giving a half-maximal response (EC50) is 5 to 15 µM.

`CCCC[C@H](NC(=O)[C@H](CC(C)C)NC(=O)[C@@H](NC(=O)[C@H](CCC(=O)O)NC(=O)[C@H](CCC(=O)O)NC(=O)[C@H](CC(=O)O)NC(=O)[C@@H](NC(=O)[C@H](Cc1ccccc1)NC(C)=O)[C@@H](C)CC)C(C)C)C(=O)N[C@@]1(C)CCCC=CCCC[C@@](C)(C(=O)N[C@@H](CCCC)C(=O)N[C@@H](C)C(=O)N[C@@H](CC(C)C)C(=O)N[C@@H](CC(=O)O)C(=O)N[C@@H](CCCNC(=N)N)C(=O)N[C@H](C(N)=O)[C@@H](C)CC)NC(=O)[C@H](CCC(=O)O)NC(=O)[C@H](C(C)C)NC(=O)[C@H](CC(C)C)NC1=O` [SP-37] (Ac-FIDEEVL[Nle][S5]LVE[S5][Nle]ALDRI-NH2; staple 9-13): the “18 h Avg % max inhibition at top conc” value is “+ (<10: +)” and the EC50 is greater than 30 µM.

`CCCC[C@H](NC(=O)[C@H](CC(C)C)NC(=O)[C@@H](NC(=O)[C@H](CCC(=O)O)NC(=O)[C@H](CCC(=O)O)NC(=O)[C@H](CO)NC(=O)[C@@H](NC(=O)[C@H](Cc1ccccc1)NC(C)=O)[C@@H](C)CC)C(C)C)C(=O)N[C@@]1(C)CCCC=CCCC[C@@](C)(C(=O)N[C@@H](CCCC)C(=O)N[C@@H](C)C(=O)N[C@@H](CC(C)C)C(=O)N[C@@H](CC(=O)O)C(=O)N[C@@H](CCCNC(=N)N)C(=O)N[C@H](C(N)=O)[C@@H](C)CC)NC(=O)[C@H]([C@@H](C)CC)NC(=O)[C@H](C(C)C)NC(=O)[C@H](CC(C)C)NC1=O` [SP-46] (Ac-FISEEVL[Nle][S5]LVI[S5][Nle]ALDRI-NH2; staple 9-13): the “18 h Avg % max inhibition at top conc” value is “+++ (≤25 but <50: +++)” and the EC50 fell in the range of 15 to 30 µM.

Turning to `CCCC[C@H](NC(=O)[C@H](CC(C)C)NC(=O)[C@@H](NC(=O)[C@H](CCC(=O)O)NC(=O)[C@H](CCC(=O)O)NC(=O)[C@H](CC(=O)O)NC(=O)[C@@H](NC(=O)[C@H](Cc1ccccc1)NC(C)=O)[C@@H](C)CC)C(C)C)C(=O)N[C@@]1(C)CCCC=CCCC[C@@](C)(C(=O)N[C@@H](CCCC)C(=O)N[C@@H](C)C(=O)N[C@@H](CC(C)C)C(=O)N[C@@H](CC(=O)O)C(=O)N[C@@H](CO)C(=O)N[C@H](C(N)=O)[C@@H](C)CC)NC(=O)[C@H]([C@@H](C)CC)NC(=O)[C@H](C(C)C)NC(=O)[C@H](CC(C)C)NC1=O` [SP-58] (Ac-FIDEEVL[Nle][S5]LVI[S5][Nle]ALDSI-NH2; staple 9-13), the “18 h Avg % max inhibition at top conc” value was “+++ (≤25 but <50: +++)” and the concentration giving a half-maximal response (EC50) is greater than 30 µM.

As to `CCCC[C@H](NC(=O)[C@H](CC(C)C)NC(=O)[C@@H](NC(=O)[C@H](CCC(=O)O)NC(=O)[C@H](CCC(=O)O)NC(=O)[C@H](CC(=O)O)NC(=O)[C@@H](NC(=O)[C@H](Cc1ccccc1)NC(C)=O)[C@@H](C)CC)C(C)C)C(=O)N[C@@]1(C)CCCC=CCCC[C@@](C)(C(=O)N[C@@H](CCC(=O)O)C(=O)N[C@@H](C)C(=O)N[C@@H](CC(C)C)C(=O)N[C@@H](CC(=O)O)C(=O)N[C@@H](CCCNC(=N)N)C(=O)N[C@H](C(N)=O)[C@@H](C)CC)NC(=O)[C@H]([C@@H](C)CC)NC(=O)[C@H](C(C)C)NC(=O)[C@H](CC(C)C)NC1=O` [SP-38] (Ac-FIDEEVL[Nle][S5]LVI[S5]EALDRI-NH2; staple 9-13), the “18 h Avg % max inhibition at top conc” value is recorded as “++++ (≥50: ++++)” and the concentration giving a half-maximal response (EC50) is 15 to 30 µM.
